# Measurements from US10118947B2, “Modulation of structured polypeptide specificity” (BICYCLE THERAPEUTICS LIMITED, priority 2013, dated 2018).
# Like-named read-outs stand apart in the source and are kept apart here. Numbered stars: 1 amine (or outer) side, 2 acyl side, 3 side chain; on linkers, the order of the positions; unused ones are H or OH. Bridge positions count the residues as written; N and C are the ends. Square brackets hold non-standard residues; d marks the D form. Peptide text beside a SMILES is read from it. TBMB = c1c(C[*:1])cc(C[*:3])cc1C[*:2]; Tle = CC(C)(C)[C@H](N)C(=O)O
# Experiments:
# [1] = biological target: T1, rat plasma Kallikrein (Rattus norvegicus, UniProt P14272)
# T1 construct: polyhistidine tag (N, cleaved yes); proTEV cleavage site (pro-peptide linker) (N, cleaved yes); made in house; host or cells: HEK-293 (suspension-adapted)
# T1 sequence (P14272 391-638 limits assumed): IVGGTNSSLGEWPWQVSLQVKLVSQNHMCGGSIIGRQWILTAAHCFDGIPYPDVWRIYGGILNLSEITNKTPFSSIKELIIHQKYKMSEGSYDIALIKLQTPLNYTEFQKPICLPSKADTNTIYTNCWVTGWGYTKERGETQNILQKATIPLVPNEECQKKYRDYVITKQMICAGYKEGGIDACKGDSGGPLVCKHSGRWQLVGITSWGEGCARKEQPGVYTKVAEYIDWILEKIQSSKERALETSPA
# [2] = Quantitative plasma stability Method #3 (LC-MS, 95% plasma), rat plasma; type: in vitro ADME; conditions: method #3; for half-life at 5 uM: rat, plasma
# Protocol: To obtain plasma stability quantitatively, peptide stock solutions (1 mM in DMSO) were shipped to Biofocus, UK, who performed the analysis. Peptides were diluted to 100 uM with water, and diluted 1:20 in plasma (5 uM final concentration, with the plasma at 95%), sampled as appropriate, precipitated as above, and quantified using a Waters Xevo TQ-MS.
# [3] = Table 1; Method #3; cited from earlier work
# [4] = Plasma stability profiling Method #1 (MALDI-TOF, 35% plasma), rat plasma; type: in vitro ADME; conditions: method #1
# Method in brief: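 Qualitative test: 200 µM peptide incubated at 37 °C in 35% rat or human citrated plasma supplemented with PBS, sampled at 0, 3, 24 h then daily up to 10 days. Parent mass tracked by MALDI-TOF; value is time until parent peptide no longer detectable.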
# [5] = biological target: T2, human plasma Kallikrein (Homo sapiens, UniProt P03952); assay: Functional enzyme inhibition assay with fluorogenic substrate Z-PheArg-AMC, human plasma Kallikrein; type: biochemical
# T2 construct: purchased Stratech, UK
# T2 sequence (P03952 20-638): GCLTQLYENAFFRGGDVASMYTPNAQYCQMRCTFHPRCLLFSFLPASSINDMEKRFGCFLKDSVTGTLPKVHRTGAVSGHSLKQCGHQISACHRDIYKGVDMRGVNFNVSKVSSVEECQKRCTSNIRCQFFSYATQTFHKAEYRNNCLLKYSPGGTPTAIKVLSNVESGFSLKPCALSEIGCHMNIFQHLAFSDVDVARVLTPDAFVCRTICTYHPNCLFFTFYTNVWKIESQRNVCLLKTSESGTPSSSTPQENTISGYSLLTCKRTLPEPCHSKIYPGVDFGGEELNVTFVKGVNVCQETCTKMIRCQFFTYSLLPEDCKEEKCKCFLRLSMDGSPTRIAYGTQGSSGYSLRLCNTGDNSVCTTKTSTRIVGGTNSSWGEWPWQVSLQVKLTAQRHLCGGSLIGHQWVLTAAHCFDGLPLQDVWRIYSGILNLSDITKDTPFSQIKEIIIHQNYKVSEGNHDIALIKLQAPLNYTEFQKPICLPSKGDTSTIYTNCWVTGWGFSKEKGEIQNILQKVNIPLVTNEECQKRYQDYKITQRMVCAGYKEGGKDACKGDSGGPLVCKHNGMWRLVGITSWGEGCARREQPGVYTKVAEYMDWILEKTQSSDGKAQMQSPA
# Method in brief: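 Rates of AMC release (excitation 360 nm, emission 460 nm) from 100 μM final Z-PheArg-AMC, 4% DMSO, were taken over the linear phase, typically 5 to 45 minutes. IC50 from four-parameter non-linear regression; Ki also derived.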
# [6] = biological target: T1, rat plasma Kallikrein; assay: Functional enzyme inhibition assay with fluorogenic substrate Z-PheArg-AMC, rat plasma Kallikrein; type: biochemical; conditions: Table 26a, loop2 stability enhanced candidates
# Protocol: Functional enzyme assays were conducted in 10 mM Tris HCl, 150 mM NaCl, 10 mM MgCl2, 1 mM CaCl2) and 1 mg/mL BSA (all Sigma UK) pH7.4 at 25° C. in solid black 96 well plates. Briefly 26.5 pM human plasma Kallikrein (purchased from Stratech, UK) or 500 pM rat plasma Kallikrein (expressed and purified in house) were incubated in the absence or presence of increasing concentrations of test peptide for 15 minutes before addition of the fluorogenic substrate Z-PheArg-AMC (Enzo Lifesciences UK) to a final assay concentration of 100 μM in 4% DMSO. Release of AMC was measured using a Pherastar FS (BMG Labtech), excitation 360 nm, emission 460 nm. The rate of the linear phase of the reaction, typically 5 to 45 minutes, was calculated in MARS data analysis software (BMG labtech). The rate was then used to calculate the IC50 and Ki in Prism (GraphPad). A four parameter inhibition non-linear regression equation was used to calculate the IC50.
# Peptides were dissolved as the TFA-salts in their powder form, and stock solutions were usually prepared in water. All solutions were centrifuged and filtered ([…] syringe filters) prior absorption measurement at 280 nm. Extinction coefficients were calculated based on the Trp/Tyr content of the peptide, and that of TMB (the TMB core, when contained in a peptide, has an ε of ˜300 M^−1cm^−1). For peptides containing non-natural amino acids with suspected chromophoric properties (i.e. NorHar, 4PhenylPro, 3Pal, 4Pal, Tic, 4GuanPhe, 4,4-BPAI, 3,3-DPA, 1NAI, 2NAI, 4BenzylPro, Ind) concentrations were determined by weighing the powder and dissolving the peptide in a defined quantity of water.
# [7] = Plasma stability / fragment profiling Method #2 (MALDI-TOF, 95% plasma), human plasma; type: in vitro ADME; conditions: for degradation / fragments in human plasma (in words): running text and figure legends
# Protocol: To obtain stability data more rapidly, peptides were also assessed in 95% plasma. Here, PBS was omitted, and a 1 mM peptide stock (in DMSO) was directly diluted into plasma (i.e. 2.5 uL stock into 47.5 uL plasma), giving a final concentration of 50 uM. 5 uL samples were taken at appropriate time points and frozen at −80 deg C. For analysis, the samples were defrosted, mixed with 15 uL of 1:1 acetonitrile:methanol, and centrifuged at 13 k for 5 min. 5 uL of the peptide-containing supernatant was aspirated and mixed with 30 mM ammonium bicarbonate in a 1:1 mixture of acetonitrile:H2O. 1 uL of this was then spotted on the MALDI plate and analysed as described above. As above, it should be noted that this is a qualitative assay serves to detect relative changes in plasma stability.
# Ac-06-34-18(TMB)-NH2 Phe2 Tyr4 (referred to as wild type peptide) was subsequently subjected to human plasma, and analysed for fragments to appear over time. This was compared to the degradation profile observed in human plasma using the NMe-Arg5 derivative of 06-34-18 (FIGS. 18a and 18b). Fragmentation was determined according to Method #2.
# [8] = Intravenous pharmacokinetics in Sprague Dawley rats; type: in vivo; conditions: rat
# Protocol: Peptides were applied as intravenous boli in PBS-buffered solution at 1.02 mg/mL (containing 2.9% DMSO) at 5.2 mg/kg to Sprague Dawley rats, and serial blood samples were taken from each animal via temporary indwelling tall vein cannulae at 5, 10, 20, 30, 60, 120, and 240 minutes post dose, and transferred to EDTA tubes for plasma generation. Data was acquired for peptide “all D Ac-06-34-18” from 3 rats, for “Ac-(06-34-18) Phe2 Aze3 Tyr4 HArg5 Ala(ψCH2NH)6” from two rats, and for “Ac-(06-34-18) Phe2 Aze3 Tyr4 HArg5 D-Asp9” from two rats.
# Plasma samples were then treated with 3 volumes of a 1:1 mixture of acetonitrile and methanol, precipitated proteins were removed by centrifugation, and the supernatant was analysed by UPLC-MS/MS.
# Quantification for peptide content in the samples was by reference to a calibration line prepared in control rat plasma. Pharmacokinetic parameters were determined by non-compartmental analysis using the software package PK Solutions 2.0 from Summit Research Services.
# [9] = Table 1; read-out: Ki (nM) (rat kallikrein); cited from earlier work
# [10] = read-out: half-life in rat plasma (t1/2) (converted)
structure (smiles),measurement,setting,value
CC(=O)N[C@H]1CSCc2cc3cc(c2)CSC[C@H](NC(=O)[C@H](CCCCNC(=N)N)NC(=O)[C@H](C)NC(=O)[C@@H]2CCCN2C(=O)[C@H](Cc2c[nH]c4ccccc24)NC(=O)[C@H](CO)NC1=O)C(=O)N[C@@H](CC(C)C)C(=O)N[C@@H](Cc1c[nH]cn1)C(=O)N[C@@H](CCC(N)=O)C(=O)N[C@@H](CC(=O)O)C(=O)N[C@@H](CC(C)C)C(=O)N[C@H](C(N)=O)CSC3 [Ac-(06-34-18) HomoArg5],Ki,[1]; [9],101 nM
same,half-life at 5 uM,"[2]; Table 15, read-out: t1/2 (hrs) in rat plasma (converted)",10.7 h
same,t1/2 (hrs) in rat plasma,[3],10.7 h
CC(=O)N[C@H]1CSCc2cc3cc(c2)CSC[C@H](NC(=O)[C@H](CCCNC(=N)N)N(C)C(=O)[C@H](C)NC(=O)[C@@H]2CCCN2C(=O)[C@H](Cc2c[nH]c4ccccc24)NC(=O)[C@H](CO)NC1=O)C(=O)N[C@@H](CC(C)C)C(=O)N[C@@H](Cc1c[nH]cn1)C(=O)N[C@@H](CCC(N)=O)C(=O)N[C@@H](CC(=O)O)C(=O)N[C@@H](CC(C)C)C(=O)N[C@H](C(N)=O)CSC3 [Ac-(06-34-18) NMeArg5],observability window / rat plasma stability profile,[4],exceeds the assay time
same,Ki,[1]; [9],120 nM
same,reduction in potency/affinity compared to wildtype,[5],20 fold
same,t1/2 (hrs) in rat plasma,[2]; Table 15,>20 h
same,half-life at 5 uM,[2]; [10],> 20 h
same,t1/2 (hrs) in rat plasma,[3],>20 h
CC(=O)N[C@H]1CSCc2cc3cc(c2)CSC[C@H](NC(=O)[C@H](CCCNC(=N)N)NC(=O)[C@H](Cc2ccc(O)cc2)NC(=O)[C@@H]2CCCN2C(=O)[C@H](Cc2ccccc2)NC(=O)[C@H](CO)NC1=O)C(=O)N[C@@H](C)CN[C@@H](Cc1c[nH]cn1)C(=O)N[C@@H](CCC(N)=O)C(=O)N[C@@H](CC(=O)O)C(=O)N[C@@H](CC(C)C)C(=O)N[C@H](C(N)=O)CSC3 [Ac-(06-34-18) Phe2 Tyr4 Ala(ψCH2NH)6],Ki,[6],43.6 nM
same,Kd,[5],1.5 nM
same,F (Kivar/KiWT),"[5]; Table 25b, fold change of Ki of variant compared to WT",4
same,Ki,"[5]; Table 25b, peptide backbone modifications in Loop2, human plasma kallikrein, read-out: Ki",1.47 nM
same,degradation / fragments in human plasma (in words),[7],significantly enhanced stability in loop2
CC(=O)N[C@H]1CSCc2cc3cc(c2)CSC[C@H](NC(=O)[C@H](CCCNC(=N)N)NC(=O)[C@H](Cc2ccc(O)cc2)NC(=O)[C@@H]2CCCN2C(=O)[C@H](Cc2ccccc2)NC(=O)[C@H](CO)NC1=O)C(=O)N[C@@H](CC(C)C)C(=O)N[C@@H](Cc1c[nH]cn1)C(=O)N[C@@H](CCC(N)=O)C(=O)N[C@H](CC(=O)O)C(=O)N[C@@H](CC(C)C)C(=O)N[C@H](C(N)=O)CSC3 [Ac-(06-34-18) Phe2 Tyr4 D-Asp9] (Ac-CSFPYRCLHQ[dD]LC-NH2; linker 1-7-13 via TBMB),Ki,[6],32 nM
same,reduction in potency/affinity compared to wildtype,[5],9 fold
same,Ki,"[5]; Table 3b, D-amino acid scan in Loop2, read-out: Ki",3.89 nM
same,F (Kivar/KiWT),"[5]; Table 3b, ratio of Ki to wild type",9
same,Ki,[5]; read-out: Ki / affinity to human Kallikrein,4 nM
same,Fragments (human plasma),"[7]; Table 3b, peptide fragments observed after incubation in human plasma","-R, -FPYR"
CC(=O)N[C@H]1CSCc2cc3cc(c2)CSC[C@H](NC(=O)[C@H](CCCNC(=N)N)NC(=O)[C@H](Cc2ccc(O)cc2)NC(=O)[C@@H]2CCCN2C(=O)[C@H](Cc2ccccc2)NC(=O)[C@H](CO)NC1=O)C(=O)N[C@@H](C(C)(C)C)C(=O)N[C@@H](Cc1c[nH]cn1)C(=O)N[C@@H](CCC(N)=O)C(=O)N[C@@H](CC(=O)O)C(=O)N[C@@H](CC(C)C)C(=O)N[C@H](C(N)=O)CSC3 [Ac-(06-34-18) Phe2 Tyr4 tBuGly6] (Ac-CSFPYRC[Tle]HQDLC-NH2; linker 1-7-13 via TBMB),Ki,[6],218 nM
same,Ki,"[5]; Table 24a, residue 6 modification in the context of Ac-(06-34-18) Phe2 Tyr4, read-out: Ki (nM) Ac-(06-34-18) Phe2 Tyr4",3.76 nM
same,degradation / fragments in human plasma (in words),[7],only removal of Arg5 in the first loop
CC(=O)N[C@H]1CSCc2cc3cc(c2)CSC[C@H](NC(=O)[C@H](CCCNC(=N)N)NC(=O)[C@H](C)NC(=O)[C@@H]2CCCN2C(=O)[C@H](Cc2c[nH]c4ccccc24)NC(=O)[C@H](CO)NC1=O)C(=O)N[C@@H](CC(C)C)C(=O)N[C@@H](Cc1c[nH]cn1)C(=O)N[C@@H](CCC(N)=O)C(=O)N[C@@H](CC(=O)O)C(=O)N[C@@H](CC(C)C)C(=O)N[C@H](C(N)=O)CSC3 [Ac-(06-34-18) wildtype],observability window / rat plasma stability profile,[4],about 2 days
same,Ki,[1]; read-out: Ki (nM) (rat kallikrein); Table 1; cited from earlier work,1.8 nM
same,t1/2 (hrs) in rat plasma,[2]; Table 15,2.3 h
same,half-life at 5 uM,[2]; [10],2.3 h
same,t1/2 (hrs) in rat plasma,[3],2.3 h
"CC(=O)N[C@@H]1CSCc2cc3cc(c2)CSC[C@@H](NC(=O)[C@@H](CCCNC(=N)N)NC(=O)[C@@H](C)NC(=O)[C@H]2CCCN2C(=O)[C@@H](Cc2c[nH]c4ccccc24)NC(=O)[C@@H](CO)NC1=O)C(=O)N[C@H](CC(C)C)C(=O)N[C@H](Cc1c[nH]cn1)C(=O)N[C@H](CCC(N)=O)C(=O)N[C@H](CC(=O)O)C(=O)N[C@H](CC(C)C)C(=O)N[C@@H](C(N)=O)CSC3 [All D 06-34-18, Ac-cswparclhqdlc-NH2(TMB), reference compound]",potency / binding to kallikrein (in words),[5],lacks any potency
same,half-life,"[8]; Sprague Dawley, in vivo, intravenous bolus 5.2 mg/kg, read-out: elimination half-life",0.9 h
same,Clearance based on AUC0-∞,[8]; intravenous,4.5 mL/min/kg
same,Volume of distribution based on AUC0-∞,[8]; intravenous,0.3 L/kg
